IC50 data for 16 compounds are collected here from patent US9233977B2, “Leucine-rich repeat kinase enzyme activity” (Merck Sharp & Dohme Corp., priority 2010, dated 2016).

pIC50: −log10 of the molar value.

This assay concerns the target T1, LRRK2 G2019S mutant kinase (Homo sapiens, UniProt Q5S007, G2019S).
T1 construct: GST; purchased Invitrogen PV4882
The assay can be described thus: LRRK2 G2019S LanthaScreen TR-FRET kinase assay. It counts as biochemical. The note with it: LRRK2 G2019S GST-tagged protein, 75 nM Fluorescein-ERM (LRRKtide), 100 μM ATP, 1 hour at room temperature; read-out: IC50 (potency). As for the experimental part: The final solvent concentration in the assay was 1% DMSO. […] Generation of raw data and workup of data to derive the IC50 (potency) and maximal inhibition at concentrations tested were performed using Merck's Assay Data Analyzer (ADA) software.
The IC50 (potency) was evaluated for the example compounds presented above.

T1 sequence (Q5S007 whole entry G2019S): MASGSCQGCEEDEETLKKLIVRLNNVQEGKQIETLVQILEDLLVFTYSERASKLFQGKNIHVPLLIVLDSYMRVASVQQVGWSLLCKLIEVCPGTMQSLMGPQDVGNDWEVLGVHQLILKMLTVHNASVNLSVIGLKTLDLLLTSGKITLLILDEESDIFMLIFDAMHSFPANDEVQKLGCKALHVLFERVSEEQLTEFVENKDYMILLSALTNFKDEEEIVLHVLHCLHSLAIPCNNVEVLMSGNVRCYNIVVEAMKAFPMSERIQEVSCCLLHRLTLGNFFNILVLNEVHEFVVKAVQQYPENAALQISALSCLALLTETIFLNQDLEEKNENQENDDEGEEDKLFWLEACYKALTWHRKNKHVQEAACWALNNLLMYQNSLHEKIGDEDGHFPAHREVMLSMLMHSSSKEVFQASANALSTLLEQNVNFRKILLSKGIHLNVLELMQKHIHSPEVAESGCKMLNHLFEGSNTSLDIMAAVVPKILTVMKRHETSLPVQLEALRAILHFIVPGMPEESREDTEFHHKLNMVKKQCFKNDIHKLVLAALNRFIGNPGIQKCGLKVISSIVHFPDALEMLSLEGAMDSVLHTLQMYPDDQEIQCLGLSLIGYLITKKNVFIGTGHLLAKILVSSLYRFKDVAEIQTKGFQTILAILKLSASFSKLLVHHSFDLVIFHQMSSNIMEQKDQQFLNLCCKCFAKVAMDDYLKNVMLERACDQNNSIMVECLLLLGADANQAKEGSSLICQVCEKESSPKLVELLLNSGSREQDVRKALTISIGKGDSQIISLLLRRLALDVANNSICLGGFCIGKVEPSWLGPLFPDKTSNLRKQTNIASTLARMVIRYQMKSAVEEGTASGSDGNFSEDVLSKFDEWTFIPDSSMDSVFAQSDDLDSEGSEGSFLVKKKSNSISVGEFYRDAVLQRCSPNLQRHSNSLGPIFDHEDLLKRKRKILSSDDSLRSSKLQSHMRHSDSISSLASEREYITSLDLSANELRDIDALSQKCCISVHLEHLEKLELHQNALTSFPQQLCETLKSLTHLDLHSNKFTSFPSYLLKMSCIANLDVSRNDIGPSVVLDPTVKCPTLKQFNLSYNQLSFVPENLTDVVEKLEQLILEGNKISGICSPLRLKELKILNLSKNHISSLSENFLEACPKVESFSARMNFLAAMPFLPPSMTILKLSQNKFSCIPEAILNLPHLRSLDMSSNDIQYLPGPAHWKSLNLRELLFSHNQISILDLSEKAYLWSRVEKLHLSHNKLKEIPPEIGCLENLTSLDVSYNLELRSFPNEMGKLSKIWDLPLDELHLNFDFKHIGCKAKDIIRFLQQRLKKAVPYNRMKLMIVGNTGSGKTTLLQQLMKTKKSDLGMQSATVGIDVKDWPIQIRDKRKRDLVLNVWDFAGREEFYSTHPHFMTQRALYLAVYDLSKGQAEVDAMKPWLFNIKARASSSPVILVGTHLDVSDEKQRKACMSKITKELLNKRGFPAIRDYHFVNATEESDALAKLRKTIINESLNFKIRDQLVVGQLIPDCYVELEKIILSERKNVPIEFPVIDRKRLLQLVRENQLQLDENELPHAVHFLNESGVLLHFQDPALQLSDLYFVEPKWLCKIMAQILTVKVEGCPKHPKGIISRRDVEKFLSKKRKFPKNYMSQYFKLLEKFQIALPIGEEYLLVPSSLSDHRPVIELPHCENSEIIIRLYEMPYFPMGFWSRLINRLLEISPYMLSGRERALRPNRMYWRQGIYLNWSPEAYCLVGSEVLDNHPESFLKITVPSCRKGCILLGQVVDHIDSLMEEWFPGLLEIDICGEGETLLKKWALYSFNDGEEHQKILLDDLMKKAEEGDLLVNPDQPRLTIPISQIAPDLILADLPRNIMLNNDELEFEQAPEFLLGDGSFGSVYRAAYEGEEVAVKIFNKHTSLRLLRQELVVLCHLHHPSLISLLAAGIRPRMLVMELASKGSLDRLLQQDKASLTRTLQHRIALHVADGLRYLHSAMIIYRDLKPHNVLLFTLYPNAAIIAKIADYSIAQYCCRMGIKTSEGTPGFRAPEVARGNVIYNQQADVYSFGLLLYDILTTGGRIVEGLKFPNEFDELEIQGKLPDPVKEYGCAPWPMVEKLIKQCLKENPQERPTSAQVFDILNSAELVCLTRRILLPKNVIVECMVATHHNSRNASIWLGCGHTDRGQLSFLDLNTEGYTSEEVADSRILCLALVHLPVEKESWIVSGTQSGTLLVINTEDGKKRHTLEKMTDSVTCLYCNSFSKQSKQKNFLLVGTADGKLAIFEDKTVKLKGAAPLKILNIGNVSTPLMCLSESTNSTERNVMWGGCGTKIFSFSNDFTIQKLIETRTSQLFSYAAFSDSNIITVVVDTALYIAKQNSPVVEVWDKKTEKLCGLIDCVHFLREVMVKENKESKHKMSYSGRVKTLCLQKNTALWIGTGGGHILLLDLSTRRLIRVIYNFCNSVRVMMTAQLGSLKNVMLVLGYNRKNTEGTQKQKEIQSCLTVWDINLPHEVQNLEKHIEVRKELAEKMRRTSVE

In the case of `O=C1NC(Cc2ccccc2)Cc2c(-c3cc[nH]n3)sc(NC3CCCC3)c21` (stereo not shown) [Example 92, 3-(cyclopentylamino)-6-benzyl-1-(1H-pyrazol-3-yl)-6,7-dihydrothieno[3,4-c]pyridin-4(5H)-one], the pIC50 was 6.54.

As to `CSc1sc(-c2cc[nH]n2)c2c1C(=O)N(CC1CCCNC1)CC2` (stereo not shown) [Example 65, 3-(methylsulfanyl)-1-(1H-pyrazol-3-yl)-5-(piperidin-3-ylmethyl)-6,7-dihydrothieno[3,4-c]pyridin-4(5H)-one], the negative-log IC50 (pIC50) was 5.47.

`CSc1sc(-c2cc[nH]n2)c2c1C(=O)N(CCCc1ccccc1)CC2` [Example 79]: the pIC50 is 5.46.

Take `CSc1sc(-c2cc[nH]n2)c2c1C(=O)N(CC1CCOCC1)CC2` [Example 66, 5-[(4-tetrahydropyranyl)methyl]-3-(methylsulfanyl)-1-(1H-pyrazol-3-yl)-6,7-dihydrothieno[3,4-c]pyridin-4(5)-one]: the pIC50 is 5.43.

With `O=C1NCCc2c(-c3cc[nH]n3)sc(SCCCO)c21` [Example 38], the pIC50 is 6.19.

In the case of `O=C1NCCc2c(-c3cc[nH]n3)sc(NC3CCCC3)c21` [Example 90, 3-(cyclopentylamino)-(1H-pyrazol-3-yl)-6,7-dihydrothieno[3,4-c]pyridin-4(5H)-one], the pIC50 was 6.44.

As for `CC1Cc2c(-c3cc[nH]n3)sc(NC3CCCC3)c2C(=O)N1` (stereo not shown) [Example 87, 3-(cyclopentylamino)-6-methyl-1-(1H-pyrazol-3-yl)-6,7-dihydrothieno[3,4-c]pyridin-4(5H)-one], the pIC50 is 6.49.

Take `CSc1sc(-c2cc[nH]n2)c2c1C(=O)N(CC1CCCCO1)CC2` (stereo not shown) [Example 63, 5-[(2-tetrahydropyranyl)methyl]-3-(methylsulfanyl)-1-(1H-pyrazol-3-yl)-6,7-dihydrothieno[3,4-c]pyridin-4(5)-one]: the pIC50 is 5.08.

Regarding `CSc1sc(-c2cc[nH]n2)c2c1C(=O)N(c1ccc(C)cc1)CC2` [Example 83], the pIC50 was 5.48.

Turning to `CNc1sc(-c2cc[nH]n2)c2c1C(=O)NCC2C` (stereo not shown) [Example 96, 3-(methylamino)-7-methyl-1-(1H-pyrazol-3-yl)-6,7-dihydrothieno[3,4-c]pyridin-4(5H)-one], the pIC50 was 6.43.

Turning to `CSc1sc(-c2cc[nH]n2)c2c1C(=O)NC(C(=O)OC(C)(C)C)C2` (stereo not shown) [Example 20, tert-butyl-3-(methylsulfanyl)-4-oxo-1-(1H-pyrazol-3-yl)-4,5,6,7-tetrahydrothieno[3,4-c]pyridine-carboxylate], the pIC50 is 5.10.

With `CC1CNC(=O)c2c(SC3CCCC3)sc(-c3cc[nH]n3)c21` (stereo not shown) [Example 36, 7-methyl-3-(cyclopentylsulfanyl)-1-(1H-pyrazol-3-yl)-6,7-dihydrothieno[3,4-c]pyridin-4(5)-one], the pIC50 was 7.28.

On to `COCC1Cc2c(-c3cc[nH]n3)sc(SC)c2C(=O)N1` (stereo not shown) [Example 11, 6-methoxymethyl-3-(methylsulfanyl)-1-(1H-pyrazol-3-yl)-6,7-dihydrothieno[3,4-c]pyridin-4(5)-one], for which the pIC50 is 6.47.

Turning to `CSc1sc(-c2cc[nH]n2)c2c1C(=O)N(CCCCCc1ccccc1)CC2` [Example 74, 5-[(5-phenyl)pentyl]-3-(methylsulfanyl)-1-(1H-pyrazol-3-yl)-6,7-dihydrothieno[3,4-c]pyridin-4(5)-one], the pIC50 was 5.12.

For `C[C@@H]1Cc2c(-c3cc[nH]n3)sc(SC3(C(=O)O)CCCC3)c2C(=O)N1` [Example 50, 1-{[(6R)-6-methyl-4-oxo-1-(1H-pyrazol-3-yl)-4,5,6,7-tetrahydrothieno[3,4-c]pyridin-3-yl]sulfanyl}cyclopentanecarboxylic acid], the pIC50 was 5.47.

Consider `O=C1NCCc2c(-c3cc[nH]n3)sc(SC3CCCC3)c21` [Example 30, 3-(Cyclopentylsulfanyl)-1-(1H-pyrazol-3-yl)-6,7-dihydrothieno[3,4-c]pyridin-4(5H)-one], for which the pIC50 is 6.54.
